Columns and labels:
[1] = system: single neuron, in the hippocampus; test: Single-cell recording/microdialysis study with minivalve, hippocampus of freely moving rat; type: in vivo
Text: Referring now to FIGS. 6a-6c, there is illustrated graphical data from a single-cell recording/microdialysis study performed with the minivalve 100 of the present invention. The recordings were made from the same single neuron, in the hippocampus of the freely moving rat 102 having the minivalve 100 mounted on its head, as illustrated in FIG. 1.

neocortical neuron = test: Single-cell recording with microdialysis drug delivery via minivalve, neocortex of freely moving rat; type: in vivo
Procedure: The experiment was performed on a freely moving rat which carried the minivalve 100 of the present invention on its head as illustrated in FIG. 1.

Row | Compound | effect on firing of hippocampal neuron, first perfusion ([1]; first ethanol perfusion into hippocampus recording site) | time to effect after minivalve activation ([1]; first ethanol perfusion, hippocampus) | effect on firing of hippocampal neuron, second delivery ([1]; second ethanol delivery, same neuron) | effect on cell firing in the neocortex (neocortical neuron; ethanol delivered via microdialysis for two minutes, freely moving rat) | time to effect after the minivalve was switched (neocortical neuron; ethanol, neocortex) | effect on firing of hippocampal neuron, subsequent application ([1]; NMDA application through the probe after the second ethanol delivery) | effect on firing of a neocortical neuron, first drug perfusion (neocortical neuron; 500 μM NMDA via microdialysis probe, freely moving rat) | time to effect after the minivalve switch (neocortical neuron; 500 μM NMDA, first perfusion, switch from position 1 to position 2) | effect on firing of a neocortical neuron, second delivery (neocortical neuron; second NMDA delivery after wash-out) | effect of third exposure (neocortical neuron; third NMDA exposure three hours later)
1 | CCO [ethanol] | suppressed the firing of the recorded neuron | as quickly as two minutes | ineffective | instant cell firing suppressant effect | within one minute | – | – | – | – | –
2 | CN[C@H](CC(=O)O)C(=O)O [NMDA] | – | – | – | – | – | initial firing rate increase, followed by electrical silence | brief firing rate increase at point D, followed by a silent period | ≤ 1 min | ineffective | clear excitatory effects associated with an EEG seizure

Reference: patent US6602220B1, “Miniature air-controlled drug selector and delivery device portable by small animals” (The Research Foundation of State University of New York, priority 2000, dated 2003)
